These results are taken from patent US8759390B2, “Chromene modulators of chemokine receptor activity” (Bristol-Myers Squibb Company, priority 2008, dated 2014).

Structures can show the parent of a compound that is named as a salt.

The assay deals with T1, CCR2 (Homo sapiens, UniProt P41597).
T1 construct: THP-1 human monocytic leukemic cell line, which expresses endogenous CCR2; endogenous in cells; host or cells: THP-1 human monocytic leukemia cells, or human PBMC / human monocytes
T1 sequence (P41597 1-360 isoform P41597-2): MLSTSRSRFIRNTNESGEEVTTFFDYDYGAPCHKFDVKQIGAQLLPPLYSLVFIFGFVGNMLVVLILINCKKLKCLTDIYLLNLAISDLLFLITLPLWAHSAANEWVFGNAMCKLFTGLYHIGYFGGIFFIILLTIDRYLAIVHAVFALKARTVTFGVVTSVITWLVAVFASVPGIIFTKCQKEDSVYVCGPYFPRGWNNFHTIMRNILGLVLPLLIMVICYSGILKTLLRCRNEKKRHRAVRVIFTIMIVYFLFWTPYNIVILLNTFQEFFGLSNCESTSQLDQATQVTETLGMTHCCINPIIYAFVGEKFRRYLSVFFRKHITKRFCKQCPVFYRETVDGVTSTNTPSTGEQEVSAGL
The assay can be described thus: CCR2 binding (125I-human MCP-1 competition on human PBMC / THP-1 cells). Conditions: n = 1 unless otherwise noted; tested in one of the assays described. Here is the method: Antagonism of MCP-1 Binding to Human PBMC
Millipore filter plates (#MABVN1250) are treated with 100 μl of binding buffer (0.5% bovine serum albumin, 20 mM HEPES buffer and 5 mM magnesium chloride in RPMI 1640 media) for thirty minutes at room temperature. To measure binding, 50 μl of binding buffer, with or without a known concentration compound, is combined with 50 μl of ^125-I labeled human MCP-1 (to give a final concentration of […] radioligand) and 50 μl of binding buffer containing 5×10^5 cells. Cells used for such binding assays can include human peripheral blood mononuclear cells isolated by Ficoll-Hypaque gradient centrifugation, human monocytes (Weiner et al., J. Immunol. Methods. 1980, 36, 89), or the THP-1 cell line which expresses the endogenous receptor. The mixture of compound, cells and radioligand are incubated at room temperature for thirty minutes. Plates are placed onto a vacuum manifold, vacuum applied, and the plates washed three times with binding buffer containing 0.5M NaCl. The plastic skirt is removed from the plate, the plate allowed to air dry, the wells punched out and counted. The percent inhibition of binding is calculated using the total counts obtained in the absence of any competing compound and the background binding determined by addition of 100 nM MCP-1 in place of the test compound.
THP-1 Monocytic Cell Binding: Whole Cell-Based Assay
The human CCR2 binding assay was also established with the THP-1 human monocytic leukemic cell line, which expresses endogenous CCR2, using ^125I-human MCP-1 as the tracer ligand. Radioligand competition binding assays were used for assessment of binding affinity of test compounds to the CCR2 receptor. For radioligand competition studies, 100 μl containing 2.5×10^5 THP-1 cells/well (in assay buffer containing 50 mM HEPES, pH7.4, 5mM MgCl2, 1 mM CaCl2 and 0.5% BSA) were added to 96-well assay plates containing the test compounds in 3-fold serial dilution, with final concentrations ranging from 5 μM to […]. Subsequently, 50 μl ^125I-MCP-1 radioligand at a final concentration of 0.2 nM in assay buffer were added to the reaction. After a 90 minute incubation period at room temperature, the binding reaction was terminated by harvesting on GF/B filter plates (PerkinElmer Cat. No. 6005177) followed by washing with ice-cold wash buffer (50 mM HEPES, pH 7.4, 0.1% BSA, 0.5 M NaCl) to remove unbound ligand. After washing, the plate was dried for 45 minutes at 60° C. followed by addition of 40 μl MicroScint 20 scintillation fluid, sealed and analyzed by the Packard TopCount reader. Non-specific binding was determined in the presence of 10 μM (a molar excess of […]) of an in-house CCR2 small molecule antagonist (CCR2 IC50=2 nM). Specific binding of ^125I-MCP-1 was calculated as the difference between total and non-specific binding. The competition data was plotted as a percentage inhibition of radioligand specific bound in the absence of test compound (percent of total signal). After correcting for non-specific binding, IC50 values were determined The IC50 is defined as the concentration of test compound required to reduce ^125I-MCP-1 specific binding by 50% and was calculated using the four parameter logistic equation to fit the normalized data.
Turning to `O=C(O)C1=Cc2ccc3ccccc3c2OC1c1ccc(Cl)c(Cl)c1` (racemic) [Example 9-3, 2-(3,4-dichlorophenyl)-2H-benzo[h]chromene-3-carboxylic acid], the Ki (usually a dissociation constant, usually derived from enzyme kinetics or from competition with a known ligand) worked out at 1200 nM.

For `O=C(O)C1=Cc2ccccc2OC1c1ccccn1` (racemic) [Example 5-21, 2-(pyridin-2-yl)-2H-chromene-3-carboxylic acid], the inhibitory constant (Ki) came to 1400 nM. Regarding `O=C(O)C1=Cc2ccccc2OC1c1ccc(Cl)c(Cl)c1` (racemic) [Example 5-1, 2-(3,4-dichlorophenyl)-2H-chromene-3-carboxylic acid], the inhibitory constant (Ki) was found to be 140 nM. Turning to `O=C(O)C1=Cc2ccccc2OC1c1ccc(Cl)c(Br)c1` (racemic) [Example 7-4, 2-(3-bromo-4-chlorophenyl)-2H-chromene-3-carboxylic acid], the affinity corresponds to a Ki of 170 nM. In the case of `Cc1ccc(C2Oc3ccccc3C=C2C(=O)O)cc1` (racemic) [Example 5-19, 2-(4-methylphenyl)-2H-chromene-3-carboxylic acid] it was 4500 nM. The molecule `O=C(O)C1=Cc2ccccc2OC1c1ccc(Cl)c([N+](=O)[O-])c1` (racemic) [Example 5-13, 2-(3-nitro-4-chlorophenyl)-2H-chromene-3-carboxylic acid] came in with a Ki of 230 nM. In turn, `COc1ccc2c(c1)OC(c1ccc(Cl)c(Cl)c1)C(C(=O)O)=C2` (racemic) [Example 9-6, 2-(3,4-dichlorophenyl)-7-methoxy-2H-chromene-3-carboxylic acid] came in with a Ki of 300 nM. With `Cc1cccc(C2Oc3ccccc3C=C2C(=O)O)c1` (racemic) [Example 5-20, 2-(3-methylphenyl)-2H-chromene-3-carboxylic acid] the figure was 4200 nM; with `O=C(O)C1=Cc2ccccc2OC1c1cccc(Cl)c1` (racemic) [Example 1, 2-(3-chlorophenyl)-2H-chromene-3-carboxylic acid], 2000 nM. As for `O=C(O)C1=Cc2ccccc2OC1c1ccc(Cl)c2ccccc12` (racemic) [Example 5-2, 2-(4-chloronaphthalen-1-yl)-2H-chromene-3-carboxylic acid], the Ki was found to be 1900 nM. With `O=C(O)C1=Cc2ccccc2OC1c1ccc(Cl)c(Cl)c1` (single isomer, unassigned; (+)) [Example 6b, (+)-2-(3,4-dichlorophenyl)-2H-chromene-3-carboxylic acid] the figure was 1700 nM; with `COc1ccc(C2Oc3ccccc3C=C2C(=O)O)cc1` (racemic) [Example 2-3, 2-(4-methoxyphenyl)-2H-chromene-3-carboxylic acid], 5300 nM; with `O=C(O)C1=Cc2cc(Cl)ccc2OC1c1ccc(Cl)c(Cl)c1` (racemic) [Example 9-2, 2-(3,4-dichlorophenyl)-6-chloro-2H-chromene-3-carboxylic acid], 300 nM. In the case of `O=C(O)C1=Cc2ccccc2OC1c1cnc(Cl)c(Cl)c1` (racemic) [Example 7-3, 2-(5,6-dichloropyridin-3-yl)-2H-chromene-3-carboxylic acid] it was 570 nM. With `O=C(O)C1=Cc2ccccc2OC1c1ccncc1` (racemic) [Example 5-3, 2-(pyridin-4-yl)-2H-chromene-3-carboxylic acid trifluoroacetic acid salt], the affinity, expressed as Ki, was 1800 nM. With `O=C(O)C1=Cc2ccc(F)cc2OC1c1ccc(Cl)c(Cl)c1` (racemic) [Example 9-1, 2-(3,4-dichlorophenyl)-7-fluoro-2H-chromene-3-carboxylic acid] the figure was 350 nM; with `O=C(O)C1=Cc2ccccc2OC1c1ccc2c(c1)OCO2` (racemic) [Example 3, 2-(benzo[d][1,3]dioxol-5-yl)-2H-chromene-3-carboxylic acid], 1100 nM.

As to `O=C(O)C1=Cc2ccccc2OC1c1ccc(F)c(Cl)c1` (racemic) [Example 5-8, 2-(3-chloro-4-fluorophenyl)-2H-chromene-3-carboxylic acid], the Ki was found to be 560 nM.

Consider `O=C(O)C1=Cc2ccccc2OC1c1ccc(Br)c(Br)c1` (racemic) [Example 5-17, 2-(3,4-dibromophenyl)-2H-chromene-3-carboxylic acid], for which the inhibitory constant (Ki) came to 85 nM. `COc1ccc2c(c1)C=C(C(=O)O)C(c1ccc(Cl)c(Cl)c1)O2` (racemic) [Example 8, 2-(3,4-dichlorophenyl)-6-methoxy-2H-chromene-3-carboxylic acid]: the inhibition constant Ki is 360 nM. In the case of `O=C(O)C1=Cc2ccccc2OC1c1ccc(C(F)(F)F)cc1` (racemic) [Example 5-10, 2-(4-trifluoromethylphenyl)-2H-chromene-3-carboxylic acid] it was 920 nM; in that of `O=C(O)C1=Cc2ccccc2OC1c1cccc(C(F)(F)F)n1` (racemic) [Example 5-25, 2-(6-trifluoromethyl-pyridin-2-yl)-2H-chromene-3-carboxylic acid], 8300 nM. In the case of `Cc1cc(C2Oc3ccccc3C=C2C(=O)O)ccc1Cl` (racemic) [Example 5-14, 2-(3-methyl-4-chlorophenyl)-2H-chromene-3-carboxylic acid] it was 160 nM. `O=C(O)C1=Cc2ccccc2OC1c1ccc(Cl)c(F)c1` (racemic) [Example 5-7, 2-(3-fluoro-4-chlorophenyl)-2H-chromene-3-carboxylic acid] had an inhibition constant Ki of 290 nM. In the case of `O=C(O)C1=Cc2ccccc2OC1c1ccc(C(F)(F)F)c(F)c1` (racemic) [Example 5-18, 2-(3-fluoro-4-trifluoromethylphenyl)-2H-chromene-3-carboxylic acid], the Ki came to 720 nM. In the case of `O=C(O)C1=Cc2ccccc2OC1c1ccc(Cl)nc1` (racemic) [Example 7-2, 2-(6-chloropyridin-3-yl)-2H-chromene-3-carboxylic acid] it was 4500 nM; in that of `O=C(O)C1=Cc2ccccc2OC1c1ccc2ccccc2n1` (racemic) [Example 5-22, 2-(quinolin-2-yl)-2H-chromene-3-carboxylic acid], 2100 nM. In the case of `CCC1(c2ccc(Cl)c(Cl)c2)Oc2ccccc2C=C1C(=O)O` (racemic) [Example 4-2, 2-(3,4-dichlorophenyl)-2-ethyl-2H-chromene-3-carboxylic acid] it was 1200 nM. With `O=C(O)C1=Cc2ccccc2OC1c1cccc2ccccc12` (racemic) [Example 5-5, 2-(naphthalen-1-yl)-2H-chromene-3-carboxylic acid] the figure was 1700 nM.

In turn, `O=C(O)C1=Cc2ccccc2OC1c1ccc(Cl)c(Cl)c1` (single isomer, unassigned; (-)) [Example 6a, (−)-2-(3,4-dichlorophenyl)-2H-chromene-3-carboxylic acid] gave an inhibitory constant (Ki) of 80 nM.

Molecule `O=C(O)C1=Cc2ccccc2OC1c1ccc2ccccc2c1` (racemic) [Example 5-4, 2-(naphthalen-2-yl)-2H-chromene-3-carboxylic acid] came in with a Ki of 1800 nM. In the case of `O=C(O)C1=Cc2ccccc2OC1c1cccc(F)c1` (racemic) [Example 5-6, 2-(3-fluorophenyl)-2H-chromene-3-carboxylic acid] it was 5700 nM; in that of `COc1cc(C2Oc3ccccc3C=C2C(=O)O)ccc1Cl` (racemic) [Example 7-1, 2-(3-methoxy-4-chlorophenyl)-2H-chromene-3-carboxylic acid], 2900 nM; in that of `O=C(O)C1=Cc2ccccc2OC1c1ccc(F)c(C(F)(F)F)c1` (racemic) [Example 5-24, 2-(3-trifluoromethyl-4-fluoro-phenyl)-2H-chromene-3-carboxylic acid], 1100 nM.
